Laboratory results taken from PubChem BioAssay (NCI).
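GI50: concentration for 50% inhibition of growth. TGI: total growth inhibition.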

What was measured:
Assay in all cases: NCI tumour cell line growth inhibition, 384-well format
HCT-15 colon = tested on: HCT-15 colon
BT-549 breast = tested on: BT-549 breast
HOP-62 NSCLC = tested on: HOP-62 NSCLC
MDA-MB-435 melanoma = tested on: MDA-MB-435 melanoma
SF-268 CNS = tested on: SF-268 CNS
TK-10 renal = tested on: TK-10 renal
SW-620 colon = tested on: SW-620 colon
CAKI-1 renal = tested on: CAKI-1 renal
MOLT-4 leukemia = tested on: MOLT-4 leukemia
SF-539 CNS = tested on: SF-539 CNS
NCI-H522 lung = tested on: NCI-H522 lung
PC-3 prostate = tested on: PC-3 prostate
OVCAR-5 ovarian = tested on: OVCAR-5 ovarian
HL-60(TB) leukemia = tested on: HL-60(TB) leukemia
MDA-MB-231 breast = tested on: MDA-MB-231 breast
CCRF-CEM leukemia = tested on: CCRF-CEM leukemia
HOP-92 NSCLC = tested on: HOP-92 NSCLC
SR leukemia = tested on: SR leukemia
DU-145 prostate = tested on: DU-145 prostate
ACHN renal = tested on: ACHN renal
HCC-2998 colon = tested on: HCC-2998 colon
NCI-H226 lung = tested on: NCI-H226 lung
HS 578T breast = tested on: HS 578T breast
SNB-19 CNS = tested on: SNB-19 CNS
SF-295 CNS = tested on: SF-295 CNS
K-562 leukemia = tested on: K-562 leukemia
HT29 colon = tested on: HT29 colon
OVCAR-8 ovarian = tested on: OVCAR-8 ovarian
RXF 393 renal = tested on: RXF 393 renal
KM12 colon = tested on: KM12 colon
IGROV1 ovarian = tested on: IGROV1 ovarian
OVCAR-3 ovarian = tested on: OVCAR-3 ovarian
U251 glioblastoma = tested on: U251 glioblastoma
RPMI-8226 leukemia = tested on: RPMI-8226 leukemia
UO-31 renal = tested on: UO-31 renal
M14 melanoma = tested on: M14 melanoma
OVCAR-4 ovarian = tested on: OVCAR-4 ovarian
NCI-H322M lung = tested on: NCI-H322M lung
SK-MEL-5 melanoma = tested on: SK-MEL-5 melanoma
A498 renal = tested on: A498 renal
MCF7 breast = tested on: MCF7 breast
SK-MEL-28 melanoma = tested on: SK-MEL-28 melanoma
NCI/ADR-RES ovarian = tested on: NCI/ADR-RES ovarian
LOX IMVI melanoma = tested on: LOX IMVI melanoma
COLO 205 colon = tested on: COLO 205 colon
UACC-62 melanoma = tested on: UACC-62 melanoma
MDA-MB-468 breast = tested on: MDA-MB-468 breast
SNB-75 CNS = tested on: SNB-75 CNS
SK-OV-3 ovarian = tested on: SK-OV-3 ovarian
786-0 renal = tested on: 786-0 renal
MALME-3M melanoma = tested on: MALME-3M melanoma
NCI-H23 lung = tested on: NCI-H23 lung
T-47D breast = tested on: T-47D breast
EKVX NSCLC = tested on: EKVX NSCLC
SN12C renal = tested on: SN12C renal
A549 NSCLC = tested on: A549 NSCLC
UACC-257 melanoma = tested on: UACC-257 melanoma
NCI-H460 NSCLC = tested on: NCI-H460 NSCLC
SK-MEL-2 melanoma = tested on: SK-MEL-2 melanoma

Cc1sc2c(c1C)C(c1ccc(Cl)cc1)=N[C@@H](CC(=O)OC(C)(C)C)c1nnc(C)n1-2
GI50 (HCT-15 colon): 48.4 nM
TGI (HCT-15 colon): 371 nM
GI50 (BT-549 breast): 51 nM
TGI (BT-549 breast): 869 nM
GI50 (HOP-62 NSCLC): 71.9 nM
TGI (HOP-62 NSCLC): 10900 nM
GI50 (MDA-MB-435 melanoma): 599 nM
TGI (MDA-MB-435 melanoma): 10700 nM
GI50 (SF-268 CNS): 984 nM
TGI (SF-268 CNS): 19300 nM
GI50 (TK-10 renal): 91.5 nM
TGI (TK-10 renal): 8290 nM
GI50 (SW-620 colon): 10100 nM
TGI (SW-620 colon): 21800 nM
GI50 (CAKI-1 renal): 53.9 nM
TGI (CAKI-1 renal): 13000 nM
GI50 (MOLT-4 leukemia): 201 nM
TGI (MOLT-4 leukemia): 1170 nM
GI50 (SF-539 CNS): 286 nM
TGI (SF-539 CNS): 12900 nM
GI50 (NCI-H522 lung): 56 nM
TGI (NCI-H522 lung): 434 nM
GI50 (PC-3 prostate): 744 nM
TGI (PC-3 prostate): 16500 nM
GI50 (OVCAR-5 ovarian): 183 nM
TGI (OVCAR-5 ovarian): 14500 nM
GI50 (HL-60(TB) leukemia): 23.3 nM
TGI (HL-60(TB) leukemia): 73.2 nM
GI50 (MDA-MB-231 breast): 57.7 nM
TGI (MDA-MB-231 breast): 13700 nM
GI50 (CCRF-CEM leukemia): 230 nM
TGI (CCRF-CEM leukemia): 1680 nM
GI50 (HOP-92 NSCLC): 74.4 nM
TGI (HOP-92 NSCLC): 13600 nM
GI50 (SR leukemia): 27.3 nM
TGI (SR leukemia): 252 nM
GI50 (DU-145 prostate): 2220 nM
TGI (DU-145 prostate): 20100 nM
GI50 (ACHN renal): 560 nM
TGI (ACHN renal): 16900 nM
GI50 (HCC-2998 colon): 94.6 nM
TGI (HCC-2998 colon): 394 nM
GI50 (NCI-H226 lung): 106 nM
TGI (NCI-H226 lung): 12300 nM
GI50 (HS 578T breast): 30.7 nM
TGI (HS 578T breast): 266 nM
GI50 (SNB-19 CNS): 371 nM
TGI (SNB-19 CNS): 16200 nM
GI50 (SF-295 CNS): 815 nM
TGI (SF-295 CNS): 17300 nM
GI50 (K-562 leukemia): 139 nM
TGI (K-562 leukemia): 13500 nM
GI50 (HT29 colon): 82 nM
TGI (HT29 colon): 12600 nM
GI50 (OVCAR-8 ovarian): 91.7 nM
TGI (OVCAR-8 ovarian): 1750 nM
GI50 (RXF 393 renal): 1140 nM
TGI (RXF 393 renal): 17500 nM
GI50 (KM12 colon): 322 nM
TGI (KM12 colon): 13200 nM
GI50 (IGROV1 ovarian): 160 nM
TGI (IGROV1 ovarian): 1190 nM
GI50 (OVCAR-3 ovarian): 86 nM
TGI (OVCAR-3 ovarian): 1070 nM
GI50 (U251 glioblastoma): 1170 nM
TGI (U251 glioblastoma): 17900 nM
GI50 (RPMI-8226 leukemia): 26.8 nM
TGI (RPMI-8226 leukemia): 74.7 nM
GI50 (UO-31 renal): 837 nM
TGI (UO-31 renal): 20600 nM
GI50 (M14 melanoma): 447 nM
TGI (M14 melanoma): 17500 nM
GI50 (OVCAR-4 ovarian): 42.1 nM
TGI (OVCAR-4 ovarian): 254 nM
GI50 (NCI-H322M lung): 241 nM
TGI (NCI-H322M lung): 14600 nM
GI50 (SK-MEL-5 melanoma): 96.4 nM
TGI (SK-MEL-5 melanoma): 1910 nM
GI50 (A498 renal): 197 nM
TGI (A498 renal): 9700 nM
GI50 (MCF7 breast): 38.3 nM
TGI (MCF7 breast): 10300 nM
GI50 (SK-MEL-28 melanoma): 448 nM
TGI (SK-MEL-28 melanoma): 16700 nM
GI50 (NCI/ADR-RES ovarian): 80.5 nM
TGI (NCI/ADR-RES ovarian): 839 nM
GI50 (LOX IMVI melanoma): 57.3 nM
TGI (LOX IMVI melanoma): 223 nM
GI50 (COLO 205 colon): 100 nM
TGI (COLO 205 colon): 11500 nM
GI50 (UACC-62 melanoma): 43 nM
TGI (UACC-62 melanoma): 10500 nM
GI50 (MDA-MB-468 breast): 37.3 nM
TGI (MDA-MB-468 breast): 109 nM
GI50 (SNB-75 CNS): 634 nM
TGI (SNB-75 CNS): 19100 nM
GI50 (SK-OV-3 ovarian): 142 nM
TGI (SK-OV-3 ovarian): 6780 nM
GI50 ([…]-0 renal): 118 nM
TGI (786-0 renal): 13800 nM
GI50 (MALME-3M melanoma): 96.7 nM
TGI (MALME-3M melanoma): 2330 nM
GI50 (NCI-H23 lung): 148 nM
TGI (NCI-H23 lung): 3500 nM
GI50 (T-47D breast): 293 nM
TGI (T-47D breast): 13200 nM
GI50 (EKVX NSCLC): 4610 nM
TGI (EKVX NSCLC): 20500 nM
GI50 (SN12C renal): 3260 nM
TGI (SN12C renal): 19900 nM
GI50 (A549 NSCLC): 177 nM
TGI (A549 NSCLC): 13600 nM
GI50 (UACC-257 melanoma): 58.1 nM
TGI (UACC-257 melanoma): 1940 nM
GI50 (NCI-H460 NSCLC): 1040 nM
TGI (NCI-H460 NSCLC): 15000 nM

CO[C@H](C(=O)[C@@H](O)[C@@H](C)O)[C@@H]1Cc2cc3cc(OC4CC(OC5CC(O)C(O)C(C)O5)C(O)C(C)O4)c(C)c(O)c3c(O)c2C(=O)[C@H]1OC1CC(OC2CC(OC3CC(C)(O)C(O)C(C)O3)C(O)C(C)O2)C(O)C(C)O1 (stereo not given in full)
GI50 (HCT-15 colon): 139 nM
TGI (HCT-15 colon): 970 nM
GI50 (BT-549 breast): 10.6 nM
TGI (BT-549 breast): 23.7 nM
GI50 (HOP-62 NSCLC): 13.7 nM
TGI (HOP-62 NSCLC): 29.5 nM
GI50 (MDA-MB-435 melanoma): 18.9 nM
TGI (MDA-MB-435 melanoma): 38.4 nM
GI50 (SF-268 CNS): 17.2 nM
TGI (SF-268 CNS): 965 nM
GI50 (TK-10 renal): 50.3 nM
GI50 (SW-620 colon): 32.4 nM
TGI (MOLT-4 leukemia): 17.7 nM
GI50 (SF-539 CNS): 13.6 nM
TGI (SF-539 CNS): 27.1 nM
GI50 (NCI-H522 lung): 13 nM
TGI (NCI-H522 lung): 26.8 nM
GI50 (PC-3 prostate): 32.9 nM
TGI (PC-3 prostate): 220 nM
GI50 (OVCAR-5 ovarian): 19.5 nM
TGI (OVCAR-5 ovarian): 43.5 nM
GI50 (HL-60(TB) leukemia): 14 nM
TGI (HL-60(TB) leukemia): 29.4 nM
GI50 (MDA-MB-231 breast): 16.6 nM
TGI (MDA-MB-231 breast): 37.2 nM
GI50 (CCRF-CEM leukemia): 33.9 nM
TGI (CCRF-CEM leukemia): 110 nM
GI50 (HOP-92 NSCLC): 31.7 nM
GI50 (DU-145 prostate): 28.8 nM
GI50 (ACHN renal): 54.6 nM
TGI (ACHN renal): 294 nM
GI50 (HS 578T breast): 13.2 nM
TGI (HS 578T breast): 27.7 nM
GI50 (SNB-19 CNS): 23.7 nM
GI50 (K-562 leukemia): 18.8 nM
TGI (K-562 leukemia): 40.4 nM
GI50 (OVCAR-8 ovarian): 15.5 nM
TGI (OVCAR-8 ovarian): 29.9 nM
GI50 (RXF 393 renal): 10.7 nM
TGI (RXF 393 renal): 23.1 nM
GI50 (OVCAR-3 ovarian): 20.3 nM
TGI (OVCAR-3 ovarian): 73.4 nM
GI50 (RPMI-8226 leukemia): 11.1 nM
TGI (RPMI-8226 leukemia): 23.6 nM
GI50 (UO-31 renal): 182 nM
TGI (UO-31 renal): 451 nM
GI50 (M14 melanoma): 18 nM
TGI (M14 melanoma): 39.8 nM
GI50 (OVCAR-4 ovarian): 31.6 nM
TGI (OVCAR-4 ovarian): 371 nM
GI50 (NCI-H322M lung): 17.4 nM
TGI (NCI-H322M lung): 42.2 nM
GI50 (SK-MEL-28 melanoma): 16.4 nM
TGI (SK-MEL-28 melanoma): 30.5 nM
GI50 (LOX IMVI melanoma): 16.9 nM
TGI (LOX IMVI melanoma): 31.2 nM
GI50 (SK-MEL-2 melanoma): 32.9 nM
TGI (SK-MEL-2 melanoma): 47.9 nM
TGI (UACC-62 melanoma): 21.6 nM
GI50 (MDA-MB-468 breast): 16.3 nM
TGI (MDA-MB-468 breast): 32.4 nM
GI50 (SNB-75 CNS): 11.8 nM
TGI (SNB-75 CNS): 30.4 nM
GI50 (MALME-3M melanoma): 14.1 nM
TGI (MALME-3M melanoma): 28 nM
GI50 (NCI-H23 lung): 18.4 nM
TGI (NCI-H23 lung): 35.9 nM
GI50 (EKVX NSCLC): 75.1 nM
TGI (EKVX NSCLC): 11000 nM
GI50 (SN12C renal): 15.2 nM
TGI (SN12C renal): 36.9 nM
GI50 (A549 NSCLC): 30.4 nM
GI50 (UACC-257 melanoma): 18.5 nM
TGI (UACC-257 melanoma): 34.5 nM
